According to ChEMBL document CHEMBL1143462, “The discovery of fluoropyridine-based inhibitors of the Factor VIIa/TF complex” (Bioorg Med Chem Lett, 2005):

Legend:
[1] = biological target: Coagulation factor VII/tissue factor (Homo sapiens, UniProt P08709); assay: Inhibitory concentration against human coagulation factor VIIa/tissue factor cleavage of fluorogenic substrate SN17c at 37 degree C for 15 minutes; assay type: protein-complex assay
[2] = In vitro inhibitory activity against prolonging prothrombin time as anticoagulant effect on extrinsic coagulation pathway; assay type: functional; settings: Homo sapiens
Coagulation factor X = Coagulation factor X (Homo sapiens, UniProt P00742); assay: Inhibitory concentration against human coagulation factor Xa
Sequence of Coagulation factor X (P00742 41-179 limits assumed): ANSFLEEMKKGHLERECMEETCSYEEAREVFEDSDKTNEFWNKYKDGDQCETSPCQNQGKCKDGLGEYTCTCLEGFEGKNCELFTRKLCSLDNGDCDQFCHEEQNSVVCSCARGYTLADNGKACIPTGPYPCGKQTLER
Sequence of Coagulation factor X (P00742 235-488 limits assumed): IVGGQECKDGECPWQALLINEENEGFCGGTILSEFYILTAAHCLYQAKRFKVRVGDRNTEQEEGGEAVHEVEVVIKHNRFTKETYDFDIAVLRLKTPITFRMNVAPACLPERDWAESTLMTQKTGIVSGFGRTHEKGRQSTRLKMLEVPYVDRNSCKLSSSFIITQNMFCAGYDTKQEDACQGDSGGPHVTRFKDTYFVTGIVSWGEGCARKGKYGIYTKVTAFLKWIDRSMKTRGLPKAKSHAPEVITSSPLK

Sequence of Coagulation factor VII/tissue factor (P08709 61-212 limits assumed): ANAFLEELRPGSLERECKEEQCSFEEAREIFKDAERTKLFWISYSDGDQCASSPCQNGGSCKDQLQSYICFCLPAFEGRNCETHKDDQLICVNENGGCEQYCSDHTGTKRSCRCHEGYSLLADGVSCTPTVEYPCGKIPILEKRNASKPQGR
Sequence of Coagulation factor VII/tissue factor (P08709 213-466 limits assumed): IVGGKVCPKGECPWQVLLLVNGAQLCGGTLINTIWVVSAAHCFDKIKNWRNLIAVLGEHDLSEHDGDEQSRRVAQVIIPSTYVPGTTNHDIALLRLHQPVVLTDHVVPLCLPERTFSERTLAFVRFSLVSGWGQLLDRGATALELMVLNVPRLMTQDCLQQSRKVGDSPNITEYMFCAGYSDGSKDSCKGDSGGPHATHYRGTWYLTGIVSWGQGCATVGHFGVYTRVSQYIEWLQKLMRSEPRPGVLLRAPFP
Sequence of Coagulation factor VII/tissue factor (P13726 33-295 partner limits assumed): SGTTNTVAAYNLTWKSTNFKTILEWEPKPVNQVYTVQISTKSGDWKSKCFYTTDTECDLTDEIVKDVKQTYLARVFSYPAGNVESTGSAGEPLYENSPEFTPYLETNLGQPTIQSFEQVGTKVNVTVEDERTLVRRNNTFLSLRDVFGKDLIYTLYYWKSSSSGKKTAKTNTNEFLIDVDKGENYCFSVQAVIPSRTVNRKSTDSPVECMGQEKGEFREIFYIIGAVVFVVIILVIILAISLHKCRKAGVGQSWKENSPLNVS

Structure (SMILES)	IC50 [1] [nM]	IC50 (Coagulation factor X) [µM]	Concentration prolonging prothrombin time [2] [µM]
CC(CCc1ccccc1)Nc1c(F)c(Oc2cccc(C(=N)N)c2)nc(Oc2ccc(C(=O)O)cc2C(=O)O)c1F (stereo unspecified)	200	–	–
COc1cccc(CNC(=O)c2ccc(Oc3nc(Oc4cccc(C(=N)N)c4)c(F)c(NC(C)CCc4ccccc4)c3F)c(C(=O)O)c2)c1 (stereo unspecified)	8	9.5	53
COc1ccc(Oc2nc(Oc3cccc(C(=N)N)c3)c(F)c(NC(C)CCc3ccccc3)c2F)c(C(=O)O)c1 (stereo unspecified)	39	11	–
CC(CCc1ccccc1)Nc1c(F)c(Oc2cccc(C(=N)N)c2)nc(Oc2ccc(C(C)C)cc2C(=O)O)c1F (stereo unspecified)	15	4.8	28
CCCOc1ccc(Oc2nc(Oc3cccc(C(=N)N)c3)c(F)c(NC(C)CCc3ccccc3)c2F)c(C(=O)O)c1 (stereo unspecified)	19	26	95
CC(CCc1ccccc1)Nc1c(F)c(Oc2cccc(C(=N)N)c2)nc(Oc2ccc(C(=O)NCCCO)cc2C(=O)O)c1F (stereo unspecified)	71	–	12
CC(C)CNC(=O)c1ccc(Oc2nc(Oc3cccc(C(=N)N)c3)c(F)c(NC(C)CCc3ccccc3)c2F)c(C(=O)O)c1 (stereo unspecified)	10	9.6	22
CC(CCc1ccccc1)Nc1c(F)c(Oc2cccc(C(=N)N)c2)nc(Oc2ccc(N(C)C)cc2C(=O)O)c1F (stereo in doubt; 28) [listing 1 of 2 here]	–	–	16
CC(CCc1ccccc1)Nc1c(F)c(Oc2cccc(C(=N)N)c2)nc(Oc2ccccc2C(=O)O)c1F (stereo unspecified)	–	55	35
CC(CCc1ccccc1)Nc1c(F)c(Oc2cccc(C(=N)N)c2)nc(Oc2ccc(OC(C)C)cc2C(=O)O)c1F (stereo unspecified)	17	12	52
CC(CCc1ccccc1)Nc1c(F)c(Oc2cccc(C(=N)N)c2)nc(Oc2ccc(N(C)C)cc2C(=O)O)c1F (stereo in doubt; 19) [listing 1 of 2 here]	13	6.8	–
CC(CCc1ccccc1)Nc1c(F)c(Oc2cccc(C(=N)N)c2)nc(Oc2ccc(-c3ccccc3)cc2C(=O)O)c1F (stereo unspecified)	23	17	112
CC(CCc1ccccc1)Nc1c(F)c(Oc2cccc(C(=N)N)c2)nc(Oc2ccc(C(=O)NCc3cccc(O)c3)cc2C(=O)O)c1F (stereo unspecified)	39	4.1	49
CCC(CO)NC(=O)c1ccc(Oc2nc(Oc3cccc(C(=N)N)c3)c(F)c(NC(C)CCc3ccccc3)c2F)c(C(=O)O)c1 (stereo unspecified)	23	5.7	10
CCN(CC)c1ccc(Oc2nc(Oc3cccc(C(=N)N)c3)c(F)c(NC(C)CCc3ccccc3)c2F)c(C(=O)O)c1 (stereo unspecified)	16	9.6	83
CCCCN(CCCC)c1ccc(Oc2nc(Oc3cccc(C(=N)N)c3)c(F)c(NC(C)CCc3ccccc3)c2F)c(C(=O)O)c1 (stereo unspecified)	36	–	–
CC(CCc1ccccc1)Nc1c(F)c(Oc2cccc(C(=N)N)c2)nc(Oc2ccc(N(C)C)cc2C(=O)O)c1F (stereo in doubt; 19) [listing 2 of 2 here]	–	–	49

Continued, in another order:

IC50 [1] [nM]	IC50 (Coagulation factor X) [µM]	Structure (SMILES)	Concentration prolonging prothrombin time [2] [µM]
730	–	CC(CCc1ccccc1)Nc1c(F)c(Oc2cccc(C(=N)N)c2)nc(Oc2ccc(C(=O)N[C@H](O)C(=O)O)cc2C(=O)O)c1F (stereo partly specified)	–
29	17	CCOc1ccc(Oc2nc(Oc3cccc(C(=N)N)c3)c(F)c(NC(C)CCc3ccccc3)c2F)c(C(=O)O)c1 (stereo unspecified)	94
20	29	Cc1ccc(Oc2nc(Oc3cccc(C(=N)N)c3)c(F)c(NC(C)CCc3ccccc3)c2F)c(C(=O)O)c1 (stereo unspecified)	–
16	59	CC(CCc1ccccc1)Nc1c(F)c(Oc2cccc(C(=N)N)c2)nc(Oc2ccc(C(=O)NC(C)(C)CO)cc2C(=O)O)c1F (stereo unspecified)	11
190	–	Cc1c(F)c(Oc2cccc(C(=N)N)c2)nc(Oc2ccc(N(C)C)cc2C(=O)O)c1F	–
140	–	CC(CCc1ccccc1)Nc1c(F)c(Oc2cccc(C(=N)N)c2)nc(Oc2ccc(C(=O)NCc3ccc(O)c(O)c3)cc2C(=O)O)c1F (stereo unspecified)	–
1200	< 10	Cc1c(F)c(Oc2cccc(C(=N)N)c2)nc(Oc2ccccc2C(=O)O)c1F	–
79	11	CC(CCc1ccccc1)Nc1c(F)c(Oc2cccc(C(=N)N)c2)nc(Oc2ccc(N)cc2C(=O)O)c1F (stereo unspecified)	–
17	8	CNc1ccc(Oc2nc(Oc3cccc(C(=N)N)c3)c(F)c(NC(C)CCc3ccccc3)c2F)c(C(=O)O)c1 (stereo unspecified)	41
15	4.5	CC(CCc1ccccc1)Nc1c(F)c(Oc2cccc(C(=N)N)c2)nc(Oc2ccc(N(C)C)cc2C(=O)O)c1F (stereo in doubt; 28) [listing 2 of 2 here]	–
14	4.3	CC(CCc1ccccc1)Nc1c(F)c(Oc2cccc(C(=N)N)c2)nc(Oc2ccc(C(=O)NC(C)C(C)(C)C)cc2C(=O)O)c1F (stereo unspecified)	15
46	13	CC(CCc1ccccc1)Nc1c(F)c(Oc2cccc(C(=N)N)c2)nc(Oc2ccc(C(=O)NC(CO)CO)cc2C(=O)O)c1F (stereo unspecified)	9
560	11	CC(CCc1ccccc1)Nc1c(F)c(Oc2cccc(C(=N)N)c2)nc(Oc2ccc(O)cc2C(=O)O)c1F (stereo unspecified)	–
67	20	CC(CCc1ccccc1)Nc1c(F)c(Oc2cccc(C(=N)N)c2)nc(Oc2ccc(C(=O)NCCCCO)cc2C(=O)O)c1F (stereo unspecified)	16
21	3.3	CC(CCc1ccccc1)Nc1c(F)c(Oc2cccc(C(=N)N)c2)nc(Oc2ccc(C(C)(C)C)cc2C(=O)O)c1F (stereo unspecified)	24
45	51	C[C@H](CCc1ccccc1)Nc1c(F)c(Oc2cccc(C(=N)N)c2)nc(Oc2ccccc2C(=O)O)c1F	29
